Reference: a melting point compilation (Tetko et al.; mined from patent text by program, amines drawn as free bases though some values may be those of a salt)

| Structure (SMILES) | melting point [°C] |
| --- | --- |
| CN(CC1Nc2cc(Cl)c(S(N)(=O)=O)cc2S(=O)(=O)N1)C(=O)CBr (centres undefined) | 150 to 152 |
| COC(=O)c1ccc2c(c1)NC(=O)C(CCO)O2 (centres undefined) | 167 to 169 |
| O=C1C(=O)N(c2cccc3ccccc23)C(=O)N1c1ccccc1 | 105 to 108 |
| COC(=O)c1ccc(C(=N)NC(=O)OC(C)(C)C)cc1 | 157 |
| Cc1sc(C(=O)NN)c(S(N)(=O)=O)c1C#N | 186 to 191 |
| CCOC(=O)c1nnc(N(C)C)n1C | 52 to 53 |
| CNC(=O)N1CC(Oc2cccc(F)c2)C1 | 155 to 156 |
| O=C(Nc1ccccc1)c1csc(Oc2cccc(Cl)c2)n1 | 94 to 95 |
| Cc1nccn1C(c1ccccc1)(c1ccccc1)c1ccccc1Cl | 177 |
| CNC(=O)c1ccccc1Nc1nc(Nc2ccc3c(c2)N(C)CCN(CCOC)C3)ncc1Cl | 172 to 174 |
| CCOC(=O)c1ncc2[nH]c3ccc(C(=O)OCc4ccccc4)cc3c2n1 | 271 to 272 |
| CC(=O)c1cccc(SCCCc2cn(S(=O)(=O)N(C)C)cn2)c1 | 122 to 124 |
| Cn1cc(S(C)(=O)=O)c(=O)c2ccc(C(C)(C)C)cc21 | 247 to 248 |
| N#CCOc1ccc2cc(CNC(=O)c3cc4ccccc4o3)ccc2c1 | 138 to 139 |
| Cc1nn(C)c2[nH]c(=O)c3ccccc3c12 | > 310 |
| Cc1ccc(N(C(=O)CCl)c2c(Cl)cccc2Cl)cc1 | 130 |
| CSc1sc(C(=O)N(C)C)c2c1-c1oncc1C(C)(C)C2 | 113 to 115 |
| COC(=O)c1c(C)c(-c2cccnc2)n2c1CSC2 | 91 |
| CCCCCCCCS(=O)c1ccc(CC(COC(C)=O)(COC(C)=O)NC(C)=O)cc1 (centres undefined) | 70 to 72 |
| COc1ccc2c(-c3cccc(F)c3F)noc2c1Cl | 184 to 189 |
| COc1ccc(C(=O)[C@H]2CCCN2C(=O)C(F)(F)F)cc1OC | 121 to 123 |
| COc1cc2ncnc(N3CCN(C(=O)NCCc4ccc(Cl)cc4)CC3)c2cc1OC | 177 to 178 |
| COc1ccc(-c2nn(Cc3ccncc3)c(=O)cc2-c2ccc(Cl)cc2)cc1 | 142 to 143 |
| O=c1[nH]c(=O)n(CCCCN2CC=C(c3ccccc3)CC2)c2cc([N+](=O)[O-])ccc12 | 242 to 244 |
| CC1(C)CC(N2C(=O)c3ccc(C(=O)O)cc3C2=O)CC(C)(C)N1 | > 225 |

| Structure (SMILES) | melting point [°C] |
| --- | --- |
| COc1cc2cc(C(=O)N3CC(CCl)c4c3cc(N(C)C)c3ccccc43)[nH]c2c(OC)c1OC (centres undefined) | 174 to 175 |
| C=C(C)CN1C(=O)c2ccccc2Oc2ncccc21 | 106 to 107 |
| CCc1[nH]n(C2CCCC2)c2nc(-c3ccnc(C)c3)nc(=O)c1-2 | 258 to 259 |
| COc1ccc(Oc2ccccc2)c(NS(=O)(=O)C(F)(F)F)c1 | 57 to 58 |
| Fc1cc(F)c(-c2c(Cl)nc3nccn3c2NCC(F)(F)F)c(F)c1 | 155 to 157 |
| CCCc1c(O)c(C(C)=O)c(C)c2c1OC(C)(C)CC2C (centres undefined) | 74 to 75 |
| CCOC(=O)C(=O)Nc1ccc2nonc2c1NC(=O)C(=O)OCC | 175 |
| CC1=C(C)C(=O)N(C(=O)NCCc2ccc(S(=O)(=O)NC(=O)NC3CCCCC3)cc2)C1 | 189 to 190 |
| O=C(Nc1cc(Br)cc(C(F)(F)F)c1)Oc1ccc([N+](=O)[O-])cc1 | 140 to 142 |
| COc1cc([N+](=O)[O-])c2nccc(C)c2c1Oc1ccc(F)cc1 | 184 to 186 |
| COc1ccc(-c2nc3ccc(C=Cc4ccc5nc(-c6ccc(OC)cc6)oc5c4)cc3o2)cc1 | 162 |
| O=C(O)COc1ccc(CCc2ccc(N3CCNCC3)cc2)cc1 | > 250 |
| CNC(=S)n1nc(Cc2ccccc2)nc1N | 173 to 175 |
| CCCCC(CC)C(=O)NCCCCn1cnc2c(N)nc3ccccc3c21 (centres undefined) | 163 to 164 |
| CC(SC1COC(c2ccc(C(=O)Nc3ccc(C#N)cc3F)cc2)OC1)C(O)(Cn1cncn1)c1ccc(F)cc1F (centres undefined) | 136 |
| COc1cc2ncc(C#N)c(Nc3ccc(F)c(Cl)c3)c2cc1NC(=O)C=CCN1C(C)CCCC1C (centres undefined) | 120 to 122 |
| O=C(CCl)C1=NOC(c2c(F)cccc2F)C1 (centres undefined) | 82.1 to 83.4 |
| COCc1cccc(-c2coc3ccc(-c4nnc(C)o4)cc23)c1 | 111 to 112 |
| COc1cccc([C@@]23CCN(C)C[C@@H]2Cc2cc4ccccc4nc2C3)c1 | 154 to 156 |
| Cc1cncnc1N1CCC(C(N)=O)CC1 | 182 to 184 |
| COC(=O)c1cccc(NC=O)n1 | 134 to 136 |
| COc1ccc(C(=O)Nc2ccccc2)cc1NC(=S)Nc1c(F)c(F)cc(F)c1F | 170 to 174 |
| COCCCNc1ncnc2c1sc1nc(N3CCOCC3)c3c(c12)CC(C)(C)OC3 | 178 to 179 |
| COc1cc(CC(=O)O)ccc1N(C(N)=O)c1ccccc1C(F)(F)F | 218 to 220 |
| Cc1oc2c(-c3ccc(F)cc3)c(-c3ccc(S(C)(=O)=O)cc3)nn2c1-c1ccc(Cl)s1 | 222 to 223 |

| Structure (SMILES) | melting point [°C] |
| --- | --- |
| CS(=O)(=O)c1ccc(C(CC2CCCC2)C(=O)Nc2ccc3ccccc3n2)cc1[N+](=O)[O-] (centres undefined) | 102 to 106 |
| COc1cc(NCCCCCCN2C(=O)c3ccccc3C2=O)c2nccc(C)c2c1 | 84 to 85 |
| CC(C)n1nc(-c2c(-c3ccccc3)oc(=O)n2C(C)C(=O)O)ccc1=O (centres undefined) | 173 to 175 |
| NC(=O)[C@@H]1C[C@]2(NC(=O)N(CCCN3CCC(O)CC3)C2=O)c2cc(F)ccc2O1 | 208 to 209 |
| O=C1c2ccc([N+](=O)[O-])c3c([N+](=O)[O-])ccc(c23)C(=O)N1O | 290 to 291 |
| COc1ccc(-c2ccc3cnc(Nc4ccc(C5CCN(CC(N)=O)CC5)cc4)nn23)cn1 | 217 |
| Cc1nc(-c2ccc(C(F)(F)F)cc2)oc1COc1ccc(/C=C/C(=O)O)cc1 | 193 |
| CCNC(=O)NC[C@H](O)c1cccc(O)c1 | 102 to 105 |
| CC(C)c1onc2c1c(=O)n(C)c(=O)n2C | 106 |
| CC(=O)NC[C@H]1CN(c2ccc(N3C=CS(=O)(=O)CC3)c(F)c2)C(=O)O1 | 193 to 194 |
| COc1ccc(C=Cc2c(Cl)cncc2Cl)c2c1CC1(CCCC1)O2 | 99 to 101 |
| N#Cc1c(Cl)nc2n(c1=O)CCS2 | 148 to 150 |
| COc1ccccc1Nc1nc(-c2ccccc2)c(C(=O)c2sc(Nc3ccccc3OC)nc2-c2ccccc2)s1 | > 285 |
| COC(=O)c1ccc(OCCNC(=O)c2ccc(C(C)C)cc2)cc1 | 89 to 91 |
| CN1CCc2[nH]c(=O)n3nc(-c4ccccc4F)nc3c2C1 | 285 to 287 |
| CCOC(=O)Oc1c(OC)cc(Cl)c2c1CN1CCc3cc(OC)c(OCc4ccccc4)cc3C1C2 (centres undefined) | 128 |
| COc1cc(N)c(Cl)cc1C(=O)NCC1CN(CC2CCN(C(=O)N(C)C)CC2)CCO1 (centres undefined) | 179 to 180 |
| Cc1c(F)c(F)c(C(=O)N[C@@H](C)C(C)C)c(F)c1F | 146 to 147 |
| CNc1ccc(-c2ncn(-c3ccc(OC(F)(F)F)cc3)n2)cc1 | 121 to 123 |
| CN1CCN(C2=Nc3ccccc3Nc3nn(C)nc32)CC1 | 182 to 184 |
| CC1(Br)COc2ccc(C#N)cc21 (centres undefined) | 163 to 165 |
| CCCCc1nn(-c2cc(NC(C)=O)ccc2Cl)c(=O)n1Cc1ccc(-c2cc(CCC)ccc2S(=O)(=O)NC(C)(C)C)cc1F | 125 to 128 |
| CS(=O)(=O)Nc1ccc([N+](=O)[O-])cc1OC1CCSCC1 | 200 |
| CNC(=O)n1nc(Oc2ncc(C(F)(F)F)cc2Cl)c(C)c1C | 117 to 118 |
| CN(C)S(=O)(=O)Nc1ccc(C(=O)Nc2ccccc2)cc1 | 213 to 215 |

| Structure (SMILES) | melting point [°C] |
| --- | --- |
| Cc1cc(N2CCN(Cc3ccc(F)cc3)C2=O)sc1C(=O)NCc1cccs1 | 128 to 131 |
| Cc1c(O)c(=O)ccn1C(C)C | 239 to 242 |
| CSCC[C@H](N)C(=O)NC(=O)N(CCCl)N=O | 95 to 97 |
| COc1nc2cc(Cl)c(Cl)c(NS(=O)(=O)c3ccccc3)c2nc1OC | 292 to 293 |
| CCCCCCCCCCCCCCOCC(C=CC(=O)N(C)C)(C=CC(=O)N(C)C)COCCCCCCCCCCCCCC | 59 to 61 |
| Clc1ccc(-c2ccccc2OCC2CO2)nn1 (centres undefined) | 118 to 119 |
| Cc1noc(NS(=O)(=O)c2ccccc2-c2ccc(-c3ncco3)cc2CN(Cc2ccccc2)CC(F)(F)F)c1C | 50 to 60 |
| CC(C)C[C@H](NC(=O)C1CCCCC1)C(=O)N[C@@H](C(C)C)[C@@H](O)c1c(-c2ccccc2)c1=O | 116 to 120 |
| O=C(O)CON=Cc1ccc(Cl)cc1 | 121 to 123 |
| COC(=O)COC(=O)C(C)c1ccc2cc(O)ccc2c1 (centres undefined) | 84.5 to 87 |
| CNc1ccc(CCc2ccc(OC)c(OC)c2)cc1 | 82 to 84 |
| CSc1nc2ccccc2c(-c2ccccc2)c1C(=O)N(C)Cc1cc(C(F)(F)F)cc(C(F)(F)F)c1 | 144 to 145 |
| CSc1cc(C(C)(C)C)ccc1O | 160 |
| CC1(C)Oc2ccc(OC(F)(F)F)cc2[C@@H](NC(=O)c2ccco2)[C@@H]1O (relative stereo) | 146 to 147 |
| COC(=O)CCCNC(=O)C[C@H]1O[C@H](c2cccc(OC)c2OC)c2cc(Cl)ccc2N(CC(C)(C)CO)C1=O | 78 to 80 |
| C=CCC(N)(c1ccccc1)C(O)c1ccccc1 (centres undefined) | 85 to 86 |
| CC(C)c1cc(C(=O)Nc2ccc(C(=O)O)c(F)c2)sc1C(C)C | 133 to 135 |
| Clc1cccc2c1CN(Cc1c[nH]c3ccccc13)C2 | 163 to 165 |
| O=C(CN1CCCC1=O)Nc1ccc(-c2ncc(C(=O)O)c(O)n2)cc1 | > 320 |
| CC1CCCC(C)N1CCNC(=O)CN1CC(c2ccccc2)CC1=O (centres undefined) | 115 to 116 |
| CC(C)Cn1c(CCCCNC(=O)c2ccccc2)nc2c(N)nc3ccccc3c21 | 95 to 101 |
| Clc1cccc(Nc2ccccc2)c1 | 128 to 138 |
| O=C1NC(=O)N2Cc3ccccc3CC12 (centres undefined) | 225 to 231 |
| CCc1ccc(C2CCCN2S(=O)(=O)c2ccc(F)cc2)cc1 (racemic) | 93 |
